# Measured values as given in PMC11282151, “Development of New CD38 Targeted Peptides for Cancer Imaging” (Molecular imaging and biology, 2024).
# Tests used:
# [1] = target: T1, Recombinant human CD38 protein (Homo sapiens, UniProt P28907); assay: Microscale thermophoresis (MST) binding affinity; design: purchased R&D 2404-AC-010; settings: for Response Amplitude: Table S2
# Experimental: Microscale thermophoresis (MST) assays determined the binding affinity of synthesized peptides to purified CD38 protein and was performed using the Monolith NT.115 (Nanotemper Technologies, Munich, Germany). […] Recombinant human CD38 protein (R&D, Catalog 2404-AC-010, Minneapolis, MN) was labeled with NT647 (Protein labeling kit red-maleimide, Nanotemper Technologies, Germany) and subsequently diluted to 5 nM in MST-2 buffer (50 mM Tris–HCl, pH 7.4, 150 mM NaCl, 10 mM MgCl2, 2% DMSO, and 0.1% Tween-20). Fluorescence was assessed in MST-2 buffer. Samples were loaded into NT.115 standard capillaries, and analysis was performed at 37 °C, 10% LED power, and 40% MST power. The Kd values were calculated from fragment concentration-dependent changes in normalized fluorescence (Fraction Bound) of different CD38 peptides based on the law of mass action using the MO Affinity Analysis v2.3 software.
# Microscale Thermophoresis (MST) measures molecular interactions based on temperature gradient-dependent mobility of fluorescent biomolecules.
# Fig. 1 Binding studies evaluating CD38-peptides using purified CD38 protein. Microscale thermophoresis (MST) analysis of binding affinities between purified CD38 protein and various CD38 peptide sequences.
# [2] = system: hCD38; assay: Phage display biopanning, PHASTpep selectivity score; type: binding, human; settings: fold change of peptide frequency hCD38 versus average of hCD4, hCD8, GST-His; two rounds of biopanning, NGS
# Source text: Using phage display and purified human CD38 protein (hCD38), the first generation high- and low-selectivity CD38-targeted peptides were identified for the development of CD38-targeted imaging agents. Briefly, two rounds of phage display screening using the PHASTpep platform identified selective peptides for human CD38. CD38 (R&D, Catalog 2404-AC-010, Minneapolis, MN, U.S.A.) or negative control proteins, human CD4 (hCD4), human CD8 (hCD8), and GST-6His were adsorbed on Maxisorp plates (Nalgene, Nunc #442,404) according to NEB phage display protocols (NEB, Ipswich, MA). A 10 μL aliquot of PhD7 library (7 amino acid linear library) (2 × 10^11 phage) (NEB, #E8211S) diluted in blocking buffer (DPBS/1% bovine serum albumin (BSA)) was added to each well. After 1 h of incubation at room temperature, wells were washed five times with blocking buffer and the remaining bound phage eluted into 100 μL of glycine buffer (0.2 M glycine, 0.5 M NaCl, pH 2.2) for 9 min before immediately neutralizing with 17 μL of 1 M Tris–HCl (pH 9.2).
# For analysis, sequencing of the selected phage clones was performed as described in Brinton et al.. Samples sent to the UVA Biomolecular Research Core Facility were deep sequenced on an Illumina MiSeq Sequencer. FASTQ files were analyzed using PHASTpep. PHASTpep analyzed files were aligned for amino acid sequence homology using the Smith—Waterman algorithm.
# To identify peptides selective for CD38, we biopanned a random, 7 amino acid peptide phage library on recombinant hCD38 as well as hCD4, hCD8, and GST-His. After two rounds of biopanning on each protein, phage were harvested, amplified, and processed for next generation sequencing (NGS). FASTQ files were uploaded into PHASTpep, translated into peptides, and tables of frequency produced. All sequences were normalized to the naïve library (preselection) sequence frequencies and finally the fold change for each peptide frequency between hCD38 and the average of the same peptide frequency from the hCD4, hCD8, and GST-His screens was calculated. The Smith-Waterman homology algorithm was employed to identify clusters of similar peptides (Table S1). From the analysis, two clusters emerged with more than 5 peptides in the homology family and also had high selectivity (PHASTpep Score, Table S1).
# [3] = target: T2, CD38 on MM.1S-CBR-GFP-WT cells (Homo sapiens, UniProt P28907); assay: In vitro blocking study of ^64Cu-NODAGA-PEG4-SL022-GGS cell binding; type: cell-based; settings: for blocking of ^64Cu-NODAGA-PEG4-SL022-GGS binding: 75 μM blocker, MM.1S-CBR-GFP-WT cells
# T2 construct: endogenous in cells; host or cells: MM.1S-CBR-GFP-WT human myeloma cells
# Experimental: To evaluate the specificity of the CD38 binding peptide, MM.1S-CBR-GFP-WT cells were suspended in binding buffer (Hank’s Balanced Salt Solution with 1 mM Ca^2+ and 1 mM Mg^2+ (HBSS + / +, Gibco, ThermoFisher, Waltham, MA) supplemented with 0.1% BSA) at 4 × 10^5 cells per 250 μL, representing the reaction volume.
# In order to determine whether the conjugates were able to identify CD38 protein expressed in its native context, we performed cell binding assays with MM.1S-CBR-GFP-WT cells.
# [4] = target: T1, Recombinant human CD38 protein; assay: MST; Monolith NT.115; NT647-labeled recombinant human CD38 at 5 nM in MST-2 buffer (50 mM Tris-HCl pH 7.4, 150 mM NaCl, 10 mM MgCl2, 2% DMSO, 0.1% Tween-20); peptides titrated (0.0305 nM to 1000 nM or 0.0305 uM to 1000 uM); 37 °C, 10% LED power, 40% MST power
Molecule,Score (PHASTpep Score) [2],other results
AC-Phe-Ser-Arg-Asp-Trp-Thr-Ser-Gly-Gly-Ser-Lys-NH2 [AC-SL028-GGS],,Response Amplitude [1]: 4.64
AC-Thr-His-Tyr-Pro-Ile-Val-Ile-Gly-Gly-Ser Lys-NH2 [AC-SL022-GGS],,Response Amplitude [1]: 4.91
DLVHYPE,1.5,
FSRDWTS,671.1,
MPVARDW,2.1,
NODAGA-PEG4-Thr-His-Tyr-Pro-Ile-Val-Ile-Gly-Gly-Ser-Lys-NH2 [NODAGA-PEG4-SL022-GGS],,"blocking of ^64Cu-NODAGA-PEG4-SL022-GGS binding ([3]; 300 nM tracer, 4 °C, 60 min): 58%; decrease in cell-bound ^64Cu-NODAGA-PEG4-SL022-GGS ([3]; 250-fold molar excess of unlabeled blocker): about 2 fold"
QGTDWTM,1.7,
QTSHDWL,1.7,
TPYPIVL,429.7,
Thr-His-Tyr-Pro-Ile-Val-Ile [THYPIVI],730.1,
VNYHFPV,1.2,binding to purified CD38 [1]: negligible binding
VSYHFPV,194.4,
YDWTMHS,299.7,
YKDWSEW,266.4,
daratumumab: CD38-targeted FDA approved antibody [reference compound],,"blocking of ^64Cu-NODAGA-PEG4-SL022-GGS binding ([3]; 300 nM tracer, 4 °C, 60 min): 73%; cell-bound ^64Cu-NODAGA-PEG4-SL022-GGS in presence of blocker ([3]; 300 nM tracer, 75 μM unlabeled blocker (250-fold molar excess), 4 °C, 60 min, mean ± SD): 3000 ± 600 fmol/mg"
FSRDWTSGGSK (AC (acetyl) on the N-terminus; C-terminal amide) [AC-SL028-GGS (AC-Phe-Ser-Arg-Asp-Trp-Thr-Ser-Gly-Gly-Ser-Lys-NH2)],,Kd [4]: 243 nM
H-KGGSFSRDWTS-NH2 [GGS-SL028 (H-Lys-Gly-Gly-Ser-Phe-Ser-Arg-Asp-Trp-Thr-Ser-NH2)],,Kd [4]: 82.6 nM
